Consider one molecule from article PMC4868737, “BAY 1024767 blocks androgen receptor mutants found in castration-resistant prostate cancer patients” (Oncotarget, 2016).

Data set [1] deals with 22Rv1 (AR H874Y, splice variants). In words: Cell proliferation assay (Alamar Blue). Type of data set: cell-based. To be noted: Homo sapiens, 22Rv1, 168 h. On the procedure: (§1) All assays were performed in 96-well microtiter plates. […] LAPC-4 cells were plated at 4,000 cells/well, VCaP cells at 16,000 cells/well, LNCaP cells at 2,000 cells/well, 22Rv1 cells at 4,000 cells/well. After 1 day, the cells were treated with R1881 (0.1 nM final concentration, except for LAPC-4 where the final concentration was 1 nM) and compound (day 0). Cell number was determined by Alamar Blue staining (2 h). Fluorescence was measured in a Victor3 device (PerkinElmer, Waltham, MA, USA) with the excitation filter set at 530 nm and the emission filter set at 590 nm. C0 was defined as the signal measured at day 7 for cells treated only with R1881 and CI was defined as the signal measured at day 7 for cells grown without R1881 or compound.

In another data set the test system is LAPC-4 (AR wild-type). In words: Cell proliferation assay (Alamar Blue). The following applies: Homo sapiens, LAPC4, 168 h. Type of data set: cell-based. On the procedure:
as §1
In general terms: The colour change of resazurin is a common sign of viable cells or microbes.

For another data set, the system named is LNCaP (AR 877A). Put plainly: Cell proliferation assay (Alamar Blue). To be noted: Homo sapiens, 168 h. Type of data set: cell-based. How it is done:
as §1

The test system of data set [2] is VCaP (AR wild-type, overexpressed). Put plainly: Cell proliferation assay (Alamar Blue). The following applies: Homo sapiens, 168 h. Type of data set: cell-based. How it is done: as §1
The nature of a further data set: Caco-2 permeation assay. Type of data set: in vitro ADME. The following applies: human. On the procedure:
Caco-2 cells were seeded on 24-well insert plates, 0.4 μm pore size, and grown for 15 days. The test compound was dissolved in DMSO and added either to the apical (A) or basolateral (B) compartment at a final concentration of 2 μM. Before and after 2 h incubation, samples were taken from both compartments and analyzed by LC/MS/MS. The apparent permeability (Papp) was determined for each direction and the efflux ratio was calculated as Papp B-A/Papp A-B.
For orientation: Caco-2 cells form a polarised layer with tight junctions and transporters.

The next data set addresses AR L701H (Homo sapiens, UniProt P10275, L701H/L702H). In words: cell-based. The following applies: IC50 (antagonistic activity).
In another data set the target is T1, AR E709Y (Homo sapiens, UniProt P10275, E710Y).
T1 sequence (P10275 1-920 E710Y): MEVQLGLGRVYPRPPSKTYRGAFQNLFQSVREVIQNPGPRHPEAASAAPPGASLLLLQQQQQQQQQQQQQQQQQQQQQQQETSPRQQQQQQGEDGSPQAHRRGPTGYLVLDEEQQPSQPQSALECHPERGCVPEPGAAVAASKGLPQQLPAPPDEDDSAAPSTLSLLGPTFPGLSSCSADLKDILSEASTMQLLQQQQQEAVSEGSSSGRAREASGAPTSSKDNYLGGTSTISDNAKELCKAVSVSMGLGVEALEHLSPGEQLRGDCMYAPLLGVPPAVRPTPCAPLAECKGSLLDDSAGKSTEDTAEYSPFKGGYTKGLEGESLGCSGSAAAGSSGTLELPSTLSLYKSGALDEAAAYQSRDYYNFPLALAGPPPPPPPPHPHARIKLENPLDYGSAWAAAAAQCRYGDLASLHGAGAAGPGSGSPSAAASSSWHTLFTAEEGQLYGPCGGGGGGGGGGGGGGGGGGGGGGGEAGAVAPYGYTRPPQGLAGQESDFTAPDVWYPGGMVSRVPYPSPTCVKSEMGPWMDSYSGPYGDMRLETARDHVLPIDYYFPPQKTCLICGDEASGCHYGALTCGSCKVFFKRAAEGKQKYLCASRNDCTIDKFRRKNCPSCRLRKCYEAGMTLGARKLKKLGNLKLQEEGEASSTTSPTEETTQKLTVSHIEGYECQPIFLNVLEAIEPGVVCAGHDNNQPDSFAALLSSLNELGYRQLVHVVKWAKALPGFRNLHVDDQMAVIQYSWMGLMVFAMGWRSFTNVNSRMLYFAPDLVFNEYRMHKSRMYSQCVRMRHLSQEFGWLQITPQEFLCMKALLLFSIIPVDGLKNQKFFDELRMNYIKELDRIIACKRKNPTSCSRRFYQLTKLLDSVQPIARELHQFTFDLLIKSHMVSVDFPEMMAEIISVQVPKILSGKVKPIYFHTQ
In words: cell-based. The following applies: IC50 (antagonistic activity).

For the next data set, the target named is T2, AR M895V (Homo sapiens, UniProt P10275, M895V/M896V).
T2 sequence (P10275 1-920 M895V/M896V): T1 sequence (P10275 1-920 E710Y) with Y710E, M895V, M896V
Put plainly: cell-based. The following applies: IC50 (antagonistic activity).

Data set [3] deals with AR wild-type and the mutants E709Y, V715M, W741C and H874Y. Put plainly: Immunofluorescence of AR sub-cellular localization in transfected COS-7 cells. The following applies: 4 h.
Procedure: For staining, culture medium was removed and the cells were washed three times with PBS. […] The cells were then washed, stained with 300 nM DAPI in PBS for 5 min, and sealed with a coverslip. Cells were imaged on an LSM700 confocal laser scanning microscope (Zeiss, Göttingen, Germany), using a 25X objective. Quantification of COS-7 cells was performed on 25 cells in two replicates using ImageJ software.

Each structure is given as a SMILES string. Residue numbers refer to the chain shown, from its start.

The GI50 is the concentration at which growth is held to half of that of the control. One may read the efflux ratio as the permeability from basolateral to apical divided by that in the opposite direction, in the common usage. What is called Papp A→B is the apparent permeability from the apical to the basolateral side of a cell layer. A high value points to fast passage. By IC50 is commonly meant the concentration that gives 50% inhibition. Higher therefore signals a need for much substance. On to `CC(C)(O)COc1ccc(CN2C(=S)N(c3ccc(C#N)c(C(F)(F)F)c3)C(=O)C2(C)C)cn1` [BAY 1024767], for which the GI50 is 0.041 µM in [1], 0.046 µM in the data set with LAPC-4 (AR wild-type), 0.221 µM with LNCaP (AR 877A) and 0.229 µM in [2]. Also, the efflux ratio at 2 h, 2 μM in the data set “Caco-2 permeation assay” amounted to 0.61. In “Caco-2 permeation assay” (2 μM, 2 h), this molecule had a Papp A→B at 2 h, 2 μM of 183 nm/s. Besides, the half-inhibitory concentration (IC50) against AR L701H (R1881 1 nM) came out at 0.718 µM; at AR L701H (R1881 10 nM), 1.38 µM; against AR E709Y (R1881 0.1 nM), 0.03 µM; at AR E709Y (R1881 1 nM) it was 0.13 µM; on AR E709Y (R1881 10 nM) it was 0.61 µM; against AR M895V (R1881 0.1 nM), 0.011 µM. In addition, the figures for the IC50 against AR M895V (R1881 1 nM) and on AR M895V (R1881 10 nM) were 0.031 µM and 0.33 µM, respectively. The “AR nuclear translocation in the presence of R1881” value in [3] (1 nM R1881, 1 μM BAY 1024767) is “did not prevent nuclear translocation”. In [3] (1 μM BAY 1024767 or 5 μM enzalutamide), the “AR nuclear localization in the absence of R1881” value is reported as “promoted nuclear localization”.
